US9611252B2 (LifeSci Pharmaceuticals, Inc., priority 2013, dated 2017)

These compounds were tested against human Plasma Kallikrein (Homo sapiens (Human), UniProt P03952) (assay: In vitro enzyme inhibition of human plasma kallikrein (PFR-AMC cleavage)). Details: not given.
Type: biochemical
Procedure: The ability of the compounds disclosed herein to inhibit human plasma kallikrein activity was quantified according to the procedures below.
A 10 mM solution of the test compound was made in DMSO. […] A control tube containing only DMSO is included. 16 μL of each compound test solution was combined with 384 μL of assay buffer (50 mM Tris-HCl pH 7.5, 150 mM NaCl, 0.01% Triton X-100) to yield a “4× test compound buffer stock”.
These solutions are hereby referred to as 4×hPK and 2×PFR-AMC, respectively.
50 μL was removed from this mixture and placed into duplicate wells on a Microfluor 1Black U-bottom microtiter plate (Thermo Scientific). This plate was incubated for 5 minutes at 37° C. To each well, 50 μL of pre-warmed 2×PFR-AMC was added to start the enzymatic reaction. Cleavage of PFR-AMC was monitored in a Biotek Synergy H4 reader set at 37° C. Readings are taken every 43 seconds for 1 hour. […] The IC50 is calculated using the Gen5 (Biotek Instruments).
The ability of the compounds in Table 3 to inhibit human plasma kallikrein activity was determined.

Chain of human Plasma Kallikrein (P03952 20-638): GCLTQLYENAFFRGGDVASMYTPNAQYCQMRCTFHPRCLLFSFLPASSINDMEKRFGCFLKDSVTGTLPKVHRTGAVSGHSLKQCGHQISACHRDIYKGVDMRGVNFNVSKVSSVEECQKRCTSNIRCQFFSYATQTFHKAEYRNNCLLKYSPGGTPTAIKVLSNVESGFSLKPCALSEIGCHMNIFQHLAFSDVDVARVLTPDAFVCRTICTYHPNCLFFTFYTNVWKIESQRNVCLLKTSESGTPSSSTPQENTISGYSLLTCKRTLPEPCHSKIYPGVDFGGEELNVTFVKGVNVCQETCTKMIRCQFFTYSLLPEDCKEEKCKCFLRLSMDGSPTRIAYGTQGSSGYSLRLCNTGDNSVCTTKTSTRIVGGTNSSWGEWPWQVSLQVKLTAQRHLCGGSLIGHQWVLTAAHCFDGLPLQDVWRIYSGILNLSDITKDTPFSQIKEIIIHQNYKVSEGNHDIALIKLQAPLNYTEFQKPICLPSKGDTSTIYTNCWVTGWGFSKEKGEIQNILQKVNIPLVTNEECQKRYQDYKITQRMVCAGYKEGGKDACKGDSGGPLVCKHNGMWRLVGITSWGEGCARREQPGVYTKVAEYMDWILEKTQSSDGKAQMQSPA

Structure (SMILES) | IC50 [µM]
Cc1cc(N)nc(C)c1CNC(=O)c1ccnc(Cn2ccc3c(Cl)cccc3c2=O)c1 [Example 22, N-(6-Amino-2,4-dimethyl-pyridin-3-ylmethyl)-2-(5-chloro-1-oxo-1H-isoquinolin-2-ylmethyl)-isonicotinamide] | 0.1 to 1

Same assay, conditions: human plasma kallikrein, Pro-Phe-Arg-AMC substrate, 37° C.; read-out: hPK IC50

Structure (SMILES) | IC50 [µM]
NC(=O)c1ccc2cc(Cc3cc(C(=O)NCc4cc5c(Cl)c[nH]c5cc4F)ccn3)ccc2n1 [Example 1, 6-((4-(((3-chloro-6-fluoro-1H-indol-5-yl)methyl)carbamoyl)pyridin-2-yl)methyl)quinoline-2-carboxamide] | 0.1 to 1
Cc1cc(N)nc(C)c1CNC(=O)c1ccnc(Cc2ccc3nc(C(N)=O)ccc3c2)c1 [Example 2, 6-((4-(((6-amino-2,4-dimethylpyridin-3-yl)methyl)carbamoyl)pyridin-2-yl)methyl)quinoline-2-carboxamide] | 0.1 to 1
N#Cc1ccc2cc(Cc3cc(C(=O)NCc4ccc5c(N)nccc5c4)ccn3)ccc2n1 [Example 3, N-((1-aminoisoquinolin-6-yl)methyl)-2-((2-cyanoquinolin-6-yl)methyl)isonicotinamide] | < 0.1
NC(=O)c1ccc2cc(Cc3cc(C(=O)NCc4ccc5c(N)nccc5c4)ccn3)ccc2n1 [Example 4] | 0.1 to 1
N#Cc1cnc2ccc(Cc3cc(C(=O)NCc4cc5c(Cl)c[nH]c5cc4F)ccn3)cc2c1 [Example 5, N-((3-chloro-6-fluoro-1H-indol-5-yl)methyl)-2-((3-cyanoquinolin-6-yl)methyl)isonicotinamide] | < 0.1
N#Cc1cnc2ccc(Cc3cc(C(=O)NCc4ccc5c(N)nccc5c4)ccn3)cc2c1 [Example 6, N-((1-aminoisoquinolin-6-yl)methyl)-2-((3-cyanoquinolin-6-yl)methyl)isonicotinamide] | < 0.1
Cc1cc(N)nc(C)c1CNC(=O)c1ccnc(Cc2ccc3ncc(C#N)cc3c2)c1 [Example 7, N-((6-amino-2,4-dimethylpyridin-3-yl)methyl)-2-((3-cyanoquinolin-6-yl)methyl)isonicotinamide] | < 0.1
Nc1nccc2cc(CNC(=O)c3ccnc(Cc4cnc5ccc(F)cc5n4)c3)ccc12 [Example 8, N-((1-aminoisoquinolin-6-yl)methyl)-2-((7-fluoroquinoxalin-2-yl)methyl)isonicotinamide] | 0.1 to 1
CC(=O)NCc1ccc2cc(Cc3cc(C(=O)NCc4cc5c(Cl)c[nH]c5cc4F)ccn3)ccc2n1 [Example 9, 2-[2-(acetylamino-methyl)-quinolin-6-ylmethyl]-N-(3-chloro-6-fluoro-1H-indol-5-ylmethyl)-isonicotinamide] | 0.1 to 1
CC(=O)NCc1ccc2cc(Cc3cc(C(=O)NCc4ccc5c(N)nccc5c4)ccn3)ccc2n1 [Example 10, 2-[2-(acetylamino-methyl)-quinolin-6-ylmethyl]-N-(1-amino-isoquinolin-6-ylmethyl)-isonicotinamide] | 0.1 to 1
CC(=O)NCc1ccc2cc(Cc3cc(C(=O)NCc4c(C)cc(N)nc4C)ccn3)ccc2n1 [Example 11, 2-[2-(acetylamino-methyl)-quinolin-6-ylmethyl]-N-(6-amino-2,4-dimethyl-pyridin-3-ylmethyl)-isonicotinamide] | 0.1 to 1
CS(=O)(=O)c1ccc2ncc(Cc3cc(C(=O)NCc4cc5c(Cl)c[nH]c5cc4F)ccn3)cc2c1 [Example 12, N-((3-chloro-6-fluoro-1H-indol-5-yl)methyl)-2-((6-(methylsulfonyl)quinolin-3-yl)methyl)isonicotinamide] | < 0.1
CS(=O)(=O)c1ccc2ncc(Cc3cc(C(=O)NCc4ccc5c(N)nccc5c4)ccn3)cc2c1 [Example 13, N-((1-aminoisoquinolin-6-yl)methyl)-2-((6-(methylsulfonyl)quinolin-3-yl)methyl)isonicotinamide] | 0.1 to 1
Cc1cc(N)nc(C)c1CNC(=O)c1ccnc(Cc2cnc3ccc(S(C)(=O)=O)cc3c2)c1 [Example 14, N-((6-amino-2,4-dimethylpyridin-3-yl)methyl)-2-((6-(methylsulfonyl)quinolin-3-yl)methyl)isonicotinamide] | 0.1 to 1
